Experimental data taken from ChEMBL document CHEMBL1201862, “PubChem BioAssay data set” (2004).
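Values below derive from 48-hour exposures of cells grown in 96-well plates, with endpoints linearly interpolated between the two concentrations bracketing the appropriate inhibition level. Here, GI50 denotes the concentration required for 50% inhibition of growth.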 The source made the active and inactive calls. No stated cut-off is given here; in the data, active = GI50 up to about 1.1 µM and inactive = higher.

How the values were obtained:
Test in all cases: inhibition of tumour cell growth, NCI panel, 48 h
[1] = test system: IGROV-1
[2] = test system: MDA-MB-231
[3] = test system: OVCAR-4
[4] = test system: UO-31
[5] = test system: HCC 2998
[6] = test system: RXF 393
[7] = test system: SR
[8] = test system: T47D
[9] = test system: Malme-3M
[10] = test system: CAKI-1
[11] = test system: HCT-15
[12] = test system: MCF7
[13] = test system: K562
[14] = test system: HL-60
[15] = test system: SK-MEL-5
[16] = test system: MDA-MB-435
[17] = test system: NCI-H460
[18] = test system: COLO 205
[19] = test system: A498
[20] = test system: OVCAR-5

SMILES	GI50 [1]	GI50 [2]	GI50 [3]	GI50 [4]	GI50 [5]	GI50 [6]	GI50 [7]	GI50 [8]	GI50 [9]	GI50 [10]	GI50 [11]	GI50 [12]	GI50 [13]	GI50 [14]	GI50 [15]	GI50 [16]	GI50 [17]	GI50 [18]	GI50 [19]	GI50 [20]
Clc1ccc2oc(CCc3ccccc3)nc2c1	51.3 µM (inactive)	> 100 µM (inactive)	52 µM (inactive)	62.7 µM (inactive)	27.4 µM (inactive)	24.9 µM (inactive)	57.3 µM (inactive)	20.5 µM (inactive)	> 100 µM (inactive)	38.2 µM (inactive)	38.5 µM	38 µM (inactive)	49.9 µM (inactive)	34.7 µM (inactive)	20.3 µM (inactive)	44.2 µM (inactive)	59.2 µM (inactive)	41.7 µM (inactive)	26.3 µM (inactive)	83.2 µM (inactive)
Oc1ccc(-c2cn3cc(C(F)(F)F)ccc3n2)cc1	63.2 µM (inactive)	> 100 µM (inactive)	55.7 µM (inactive)	61.5 µM (inactive)	22.1 µM (inactive)	31.6 µM (inactive)	26.2 µM (inactive)	18.3 µM (inactive)	71.8 µM (inactive)	60.1 µM (inactive)	35.6 µM	26.7 µM (inactive)	35.2 µM (inactive)	9.18 µM (inactive)	32.1 µM (inactive)	41.2 µM (inactive)	32.1 µM (inactive)	45.2 µM (inactive)	70.1 µM (inactive)	76.9 µM (inactive)
Cc1c(C)c(CC(=O)N2CC2)c(C)c(C)c1CC(=O)N1CC1	17.1 µM (inactive)	19.2 µM (inactive)	19.1 µM (inactive)	13.5 µM (inactive)	11.4 µM (inactive)	3.61 µM (inactive)	0.33 µM (active)	6.61 µM (inactive)	12.1 µM (inactive)	2.12 µM (inactive)	16.8 µM	3.22 µM (inactive)	12.6 µM (inactive)	0.705 µM (active)	> 10 µM (inactive)	16 µM (inactive)	0.337 µM (active)	14.7 µM (inactive)	16 µM (inactive)	25.7 µM (inactive)
O=C1/C(=C/c2ccc(O)cc2)CCc2ccc([N+](=O)[O-])cc21	61.2 µM (inactive)	> 100 µM (inactive)	> 90.6 µM (inactive)	23 µM (inactive)	> 100 µM (inactive)	33.3 µM (inactive)	1.63 µM (inactive)	68.7 µM (inactive)	98.2 µM (inactive)	> 82.6 µM (inactive)	> 100 µM	> 33.3 µM (inactive)	> 100 µM (inactive)	5.5 µM (inactive)	> 81.8 µM (inactive)	> 100 µM (inactive)	45.9 µM (inactive)	> 100 µM (inactive)	34.6 µM (inactive)	> 51.5 µM (inactive)
CC(C)=CCc1cc(C2COc3cc4c(c(O)c3C2=O)C=CC(C)(C)O4)c(O)cc1O (stereo not given)	16.2 µM (inactive)	14.2 µM (inactive)	10.6 µM (inactive)	12.8 µM (inactive)	18.7 µM (inactive)	6.59 µM (inactive)	6.78 µM (inactive)	4.99 µM (inactive)	13.4 µM (inactive)	17.2 µM (inactive)	13.7 µM	11.8 µM (inactive)	3.08 µM (inactive)	8.63 µM (inactive)	11.3 µM (inactive)	16 µM (inactive)	14.3 µM (inactive)	20.2 µM (inactive)	16.5 µM (inactive)	15.6 µM (inactive)
CC1OC(OC2C(O[C@H]3CC[C@@]4(C)C(=CC[C@H]5[C@@H]6C[C@@H]7O[C@]8(CC[C@H](C)CN8)[C@@H](C)[C@@H]7[C@@]6(C)CC[C@@H]54)C3)OC(CO)C(O)C2OC2OC(CO)C(O)C(O)C2O)C(O)C(O)C1O (stereo not given in full)	19.5 µM (inactive)	21.4 µM (inactive)	19.8 µM (inactive)	19.1 µM (inactive)	18.3 µM (inactive)	15.8 µM (inactive)	29 µM (inactive)	19.5 µM (inactive)	18 µM (inactive)	19.2 µM (inactive)	16.7 µM	16.9 µM (inactive)	> 10 µM (inactive)	15.5 µM (inactive)	19.2 µM (inactive)	23.5 µM (inactive)	17.8 µM (inactive)	17.9 µM (inactive)	26.9 µM (inactive)	14.8 µM (inactive)
O=C1c2c(Br)sc(Br)c2[C@@H](O)[C@H]1O	18.2 µM (inactive)	16.6 µM (inactive)	14.1 µM (inactive)	17.1 µM (inactive)	20.1 µM (inactive)	16.2 µM (inactive)	1.96 µM (inactive)	19.4 µM (inactive)	20.4 µM (inactive)	18.4 µM (inactive)	11.4 µM	17.1 µM (inactive)	2.91 µM (inactive)	9.14 µM (inactive)	18.4 µM (inactive)	10.7 µM (inactive)	17.2 µM (inactive)	14.3 µM (inactive)	68.1 µM (inactive)	19.9 µM (inactive)
COc1c(OC(C)=O)c(OC(C)=O)cc2c1-c1ccc(SC)c(=O)cc1C(NC(C)=O)CC2 (stereo not given)	0.933 µM (active)	0.512 µM (active)	26 µM (inactive)	71.9 µM (inactive)	0.454 µM (active)	3.66 µM (inactive)	0.448 µM (active)	> 100 µM (inactive)	0.468 µM (active)	6.89 µM (inactive)	9.77 µM	0.124 µM (active)	0.316 µM (active)	0.208 µM (active)	0.184 µM (active)	0.179 µM (active)	2.9 µM (inactive)	1.65 µM (inactive)	4.02 µM (inactive)	10.1 µM (inactive)
